Experimental data from US8518978B2, “Pharmaceutical composition for prevention and treatment of restenosis comprising isoxazole derivatives” (SK Biopharmaceuticals Co., Ltd., priority 2007, dated 2013).

Key:
[1] = system: Wnt/β-catenin signal transduction (β-catenin activity) in HEK293 cell line; experiment: Cell based Wnt agonist screening system (Tcf/Lef firefly luciferase reporter) in HEK293 cell line; parameters: species or system human
Text: (§1) Two kinds of human cancer cell lines HEK293 and SW480 were used to determine the ex vivo activity of the compounds according to one exemplary embodiment of the present invention.
(§2) In order to determine the activity of the wnt/β-catenin signal transduction in each cancer cell line, the present inventors introduced a gene as shown in FIG. 1 into cells, the gene having binding sites (5× TCFs) of Tcf/Lef transcription regulation protein to which β-catenin binds and having a firefly fluorescent protein (firefly luciferase) as a marker that can determine the activity of the Tcf/Lef transcription regulation protein. Then, the present inventors constructed a cell based Wnt agonist screening system by treating the gene-introduced cells with G418 to obtain a single clone of a cell line whose Tcf/Lef transcription regulation protein is continuously expressed due to the introduction of the gene. […]
(§3) When the prepared cell line was treated with lithium chloride (LiCl) that is a positive control in the cell based Wnt agonist screening system as the control for determining the Wnt agonist activity of the isoxazole derivative according to one exemplary embodiment of the present invention, an expression level of the fluorescent protein was measured, and plotted in a graph as shown in FIG. 3. […]

[2] = system: Wnt/β-catenin signal transduction (β-catenin activity) in SW480 cell line; experiment: Cell based Wnt agonist screening system (Tcf/Lef firefly luciferase reporter) in SW480 cell line; parameters: species or system human; settings: Conc. 20000 μM, control that defines 100%
Text: as §1, §2, §3

Nc1ccc(-c2cc(C(=O)NCCCn3ccnc3)no2)cc1 [Derivative 48, 5-(4-amino-phenyl)-isoxazole-3-carboxylic acid (3-imidazol-1-yl-propyl)-amide]
Emax at 120 µM ([1]; Homo sapiens, Conc. 120 μM, 24-hour treatment, relative to LiCl 20 mM = 100%, read-out: Relative Max. Activity (%)): 246%

[Cl-].[Li+] [LiCl, lithium chloride, reference compound]
Relative Max. Activity (%) [2]: 100%
Relative Max. Activity (%) ([1]; Conc. 20000 μM, control that defines 100%): 100%
